Experimental data published in patent US6372236B1, “Cream composition for skin care” (Doosan Corporation, priority 2000, dated 2002).

Tested on: acne
Assay: Test on patients suffering from acne
Type: in vivo, human

In the case of `CCCCCCCCCCCCCC[C@@H](O)[C@@H](O)[C@@H](N)CO` [phytosphingosine], the therapeutic efficacy is reported as “good therapeutic efficacy”.
